Measured values: paper PMC11596972, “Synthesis and Antimicrobial Activity of 3-Alkylidene-2-Indolone Derivatives” (Molecules, 2024)
Values after ≈ are worked out from the molar mass of the structure shown. Where two headings read alike, the source gives them in different places.

How the values were obtained:
S. aureus 4220 = assay: MIC, double dilution method, S. aureus 4220; format: cell-based; settings: Staphylococcus aureus, 4220, 24 h
S. aureus ATCC 6538 = assay: MIC, double dilution method, S. aureus ATCC 6538; format: cell-based; settings: Staphylococcus aureus, ATCC6538, 24 h
MRSA ATCC 43300 = assay: MIC, double dilution method, MRSA ATCC 43300; format: cell-based, Methicillin-resistant Staphylococcus aureus; settings: MRSA ATCC 43300, Gram-positive, 24 h culture
P. aeruginosa CMCC 10211 = assay: MIC, double dilution method, P. aeruginosa CMCC 10211; format: cell-based; settings: Pseudomonas aeruginosa
E. coli ATCC 25922 = assay: MIC, double dilution method, E. coli ATCC 25922; format: cell-based; settings: Escherichia coli
E. coli 1924 = assay: MIC, double dilution method, E. coli 1924; format: cell-based, Escherichia coli
C. albicans CMCC 98001 = assay: MIC, double dilution method, C. albicans CMCC 98001; format: cell-based, Candida albicans; settings: for MIC: C. albicans CMCC 98001, fungus, 24 h culture
[1] = test system: Staphylococcus aureus 4220; assay: Minimum bactericidal concentration, S. aureus 4220; format: cell-based; settings: 99.9% reduction of inoculum
Method: (§1) Moreover, minimum bactericidal concentration (MBC (μg/mL)) or minimum fungicidal concentration (MFC (μg/mL)) assays were performed for the promising compounds 10d, 10f, 10g and 10h against Staphylococcus aureus ATCC 6538, Staphylococcus aureus 4220, Staphylococcus aureus ATCC 43300 and Candida albicans CMCC 98001, and shown in Table 2.
(§2) The minimum bactericidal concentration (MBC) or minimum fungicidal concentration (MFC) was determined as described, following the MIC assay, by subculturing 5 μL of the compounds from wells showing no visible growth onto fresh agar plates. The plates were incubated at 37 °C for 24 h.

[2] = Cytotoxicity, MTT assay, HepG2; format: cell-based; settings: human, HepG2 cells, 48 h incubation
Method: (§3) The cytotoxicity of the most bioactive compounds 10f, 10g and 10h were evaluated in vitro against the HepG2 cell line (human hepatocellular carcinoma cell line) and the L-02 cell line (normal liver cell line) by 3-(4,5-dimethylthiazol-2-yl)-2,5-diphenyltetrazolium bromide (MTT) assay. The obtained results were presented by the inhibitory concentration that reduces the viability of the cell population to 50% of the maximal viability (IC50).
(§4) HepG2 cells and L-02 cells (ATCC, Manassas, VA, USA) were plated in 96-well plates at a density of 30–40% to ensure exponential growth throughout the experimental period, and then allowed to adhere for 1 day. Next, the cells were treated with eight concentrations (100, 50, 25, 10, 5, 1, 0.1, and 0.01 μmol/L) of each compound. After 48 h of incubation, MTT solution was added to each well at a final concentration of 2 mg/mL and incubated for an additional 4 h. Next, the MTT solution was removed and […] of dimethyl sulphoxide (DMSO)/well was added (Sigma-Aldrich, St. Louis, MO, USA). The plates were shaken vigorously at RT to ensure complete solubilization, and absorption at 492 nm was determined by a microplate reader (BioTek Instruments, Inc., Winooski, VT, USA). At least three independent experiments were conducted.

[3] = Cytotoxicity, MTT assay, L-02; format: cell-based; settings: human, L-02 cells (normal liver cell line), 48 h incubation
Method: as §3, §4

[4] = test system: three Gram-positive bacteria strains and two Gram-negative bacteria strains; set-up: method as in PMID 29968851; settings: cited from earlier work
[5] = test system: Staphylococcus aureus ATCC 6538; assay: Minimum bactericidal concentration, S. aureus ATCC 6538; format: cell-based; settings: ATCC6538, 99.9% reduction of inoculum
Method: as §1, §2

[6] = test system: Gram-positive and Gram-negative bacterial strains; set-up: method as in PMID 27318539; settings: most of the tested Gram-positive and Gram-negative bacterial strains; cited from earlier work
[7] = test system: Candida albicans CMCC 98001; assay: Minimum fungicidal concentration, C. albicans CMCC 98001; format: cell-based
Method: as §1, §2

[8] = test system: four bacteria and three fungi; set-up: method as in doi:10.1007/s11164-013-1403-x; settings: cited from earlier work
E. coli ATCC 25,922 = test system: E. coli ATCC 25,922; set-up: method as in PMID 33839249; settings: cited from earlier work
Staphylococcus aureus = test system: Staphylococcus aureus; set-up: method as in PMID 28946655; settings: cited from earlier work
[9] = test system: Staphylococcus aureus ATCC 43300; assay: Minimum bactericidal concentration, S. aureus ATCC 43300; format: cell-based; settings: ATCC43300
Method: as §1, §2

[10] = Candida albicans, CMCC98001, 24 h
[11] = S. aureus 4220, Gram-positive, 24 h culture, read-out: MIC
[12] = S. aureus ATCC 6538, Gram-positive, 24 h culture, read-out: MIC
[13] = Staphylococcus aureus, 24 h, read-out: MIC
[14] = CMCC10211, P. aeruginosa CMCC 10211, Gram-negative, 24 h culture, read-out: MIC
[15] = ATCC25922, E. coli ATCC 25922, Gram-negative, 24 h culture, read-out: MIC
[16] = Escherichia coli, E. coli 1924, Gram-negative, 24 h culture, read-out: MIC
[17] = Candida albicans, CMCC98001, 24 h, read-out: MIC

CN1C(=O)/C(=C(\O)c2ccc(Cl)cc2)c2cccc(Br)c21 [Compound 10g, (Z)-7-bromo-3-((4-chlorophenyl)(hydroxy)methylene)-1-methylindolin-2-one]
MIC (S. aureus 4220): 0.5 µg/mL (≈ 1.37 µM) | MIC (S. aureus ATCC 6538): 2 µg/mL (≈ 5.49 µM) | MIC (MRSA ATCC 43300; Staphylococcus aureus, 24 h): 0.5 µg/mL (≈ 1.37 µM) | MIC (P. aeruginosa CMCC 10211; CMCC10211, 24 h): > 64 µg/mL | MIC (E. coli ATCC 25922; ATCC25922, 24 h): 64 µg/mL (≈ 176 µM) | MIC (E. coli 1924; Escherichia coli, 1924, 24 h): 1 µg/mL (≈ 2.74 µM) | MIC (C. albicans CMCC 98001; [10]): > 64 µg/mL | MBC [1]: 32 µg/mL (≈ 87.8 µM) | IC50 at 48 h [2]: > 100 µM | IC50 at 48 h [3]: > 100 µM

CN1C(=O)/C(=C(\O)c2cccs2)c2ccccc21 [Compound 10a, (Z)-3-(hydroxy(thiophen-2-yl)methylene)-1-methylindolin-2-one]
MIC (S. aureus 4220; [11]): > 64 µg/mL | MIC (S. aureus ATCC 6538; [12]): 64 µg/mL (≈ 249 µM) | MIC (MRSA ATCC 43300; [13]): 64 µg/mL (≈ 249 µM) | MIC (P. aeruginosa CMCC 10211; [14]): 64 µg/mL (≈ 249 µM) | MIC (E. coli ATCC 25922; [15]): > 64 µg/mL | MIC (E. coli 1924; [16]): 32 µg/mL (≈ 124 µM) | MIC (C. albicans CMCC 98001; [17]): 64 µg/mL (≈ 249 µM) | melting point: 141 to 143 °C

Cn1c([N+](=O)[O-])cnc1/C=C1/C(=O)Nc2ccc([N+](=O)[O-])cc21 [Compound XI]
MIC [4]: 0.0625 to 4 µg/mL

Cc1cccc2c1N(C)C(=O)/C2=C(\O)c1ccc(Cl)cc1 [Compound 10f, (Z)-3-((4-chlorophenyl)(hydroxy)methylene)-1,7-dimethylindolin-2-one]
MIC (S. aureus 4220): 4 µg/mL (≈ 13.3 µM) | MIC (S. aureus ATCC 6538): 0.5 µg/mL (≈ 1.67 µM) | MIC (MRSA ATCC 43300; Staphylococcus aureus, 24 h): 2 µg/mL (≈ 6.67 µM) | MIC (P. aeruginosa CMCC 10211; CMCC10211, 24 h): > 64 µg/mL | MIC (E. coli ATCC 25922; ATCC25922, 24 h): > 64 µg/mL | MIC (E. coli 1924; Escherichia coli, 1924, 24 h): 8 µg/mL (≈ 26.7 µM) | MIC (C. albicans CMCC 98001; [10]): > 64 µg/mL | MBC [5]: 32 µg/mL (≈ 107 µM) | IC50 at 48 h [2]: > 100 µM | IC50 at 48 h [3]: > 100 µM

CN(C)c1cccc2cc(S(=O)(=O)N3CCN(c4ccc(/C=C5\C(=O)Nc6ccccc65)cc4)CC3)ccc12 [VII]
MIC [6]: 12.5 to 50 µg/mL

CN1C(=O)/C(=C(\O)c2ccc(F)cc2)c2ccccc21 [Compound 10d, (Z)-3-((4-fluorophenyl)(hydroxy)methylene)-1-methylindolin-2-one]
MIC (S. aureus 4220): 16 µg/mL (≈ 59.4 µM) | MIC (S. aureus ATCC 6538): 4 µg/mL (≈ 14.9 µM) | MIC (MRSA ATCC 43300; Staphylococcus aureus, 24 h): 32 µg/mL (≈ 119 µM) | MIC (P. aeruginosa CMCC 10211; CMCC10211, 24 h): > 64 µg/mL | MIC (E. coli ATCC 25922; ATCC25922, 24 h): 64 µg/mL (≈ 238 µM) | MIC (E. coli 1924; Escherichia coli, 1924, 24 h): 8 µg/mL (≈ 29.7 µM) | antifungal activity (class in words) (C. albicans CMCC 98001; C. albicans CMCC 98001): moderate antifungal activity | MIC (C. albicans CMCC 98001): 8 µg/mL (≈ 29.7 µM) | MIC (C. albicans CMCC 98001; [10]): 8 to 16 µg/mL (≈ 29.7 to 59.4 µM) | MFC/MIC [7]: 2 | MFC ([7]; CMCC98001, 99.9% reduction of inoculum): 16 µg/mL (≈ 59.4 µM)

C/C(O)=C1/C(=O)N(C)c2ccccc21 [Compound 5a, (Z)-3-(1-hydroxyethylidene)-1-methylindolin-2-one]
MIC (S. aureus 4220; [11]): 64 µg/mL (≈ 338 µM) | MIC (S. aureus ATCC 6538; [12]): > 64 µg/mL | MIC (MRSA ATCC 43300; [13]): > 64 µg/mL | MIC (P. aeruginosa CMCC 10211; [14]): 64 µg/mL (≈ 338 µM) | MIC (E. coli ATCC 25922; [15]): > 64 µg/mL | MIC (E. coli 1924; [16]): 64 µg/mL (≈ 338 µM) | MIC (C. albicans CMCC 98001; [17]): 32 µg/mL (≈ 169 µM) | melting point: 95 to 97 °C

O=C1Nc2ccccc2/C1=C\C(=O)c1cc(Cl)c(Cl)cc1O [Compound X]
MIC [8]: 12 to 18 µg/mL

CCC(=O)/C=C1/C(=O)N(CCn2cncn2)c2ccccc21 [IX]
MIC (E. coli ATCC 25,922): 1 µg/mL (≈ 3.37 µM)

Cc1ccc(/C(O)=C2/C(=O)N(C)c3ccccc32)cc1 [Compound 10c, (Z)-3-(hydroxy(p-tolyl)methylene)-1-methylindolin-2-one]
MIC (S. aureus 4220): 8 µg/mL (≈ 30.2 µM) | MIC (S. aureus ATCC 6538): 2 µg/mL (≈ 7.54 µM) | MIC (MRSA ATCC 43300): 16 µg/mL (≈ 60.3 µM) | MIC (MRSA ATCC 43300; listed as 10v): 0.5 to 16 µg/mL | MIC (P. aeruginosa CMCC 10211; CMCC10211, 24 h): > 64 µg/mL | MIC (E. coli ATCC 25922; ATCC25922, 24 h): 64 µg/mL (≈ 241 µM) | MIC (E. coli 1924; Escherichia coli, 1924, 24 h): 8 µg/mL (≈ 30.2 µM) | MIC (C. albicans CMCC 98001; [10]): 64 µg/mL (≈ 241 µM)

O=C1NC(c2c[nH]c3ccc(O)cc23)=C/C1=C1\C(=O)Nc2ccccc21 [Compound VI, violacein]
MIC (Staphylococcus aureus): 6.25 µM (≈ 2.15 µg/mL)

CCCN1C(=O)/C(=C(\O)c2ccc(Cl)cc2)c2ccccc21 [Compound 10h, (Z)-3-((4-chlorophenyl)(hydroxy)methylene)-1-propylindolin-2-one]
MIC (S. aureus 4220): 1 µg/mL (≈ 3.19 µM) | MIC (S. aureus ATCC 6538): 0.5 µg/mL (≈ 1.59 µM) | MIC (MRSA ATCC 43300; Staphylococcus aureus, 24 h): 0.5 µg/mL (≈ 1.59 µM) | MIC (P. aeruginosa CMCC 10211; CMCC10211, 24 h): 16 µg/mL (≈ 51 µM) | MIC (E. coli ATCC 25922; ATCC25922, 24 h): 16 µg/mL (≈ 51 µM) | MIC (E. coli 1924; Escherichia coli, 1924, 24 h): 1 µg/mL (≈ 3.19 µM) | MIC (C. albicans CMCC 98001; [10]): 64 µg/mL (≈ 204 µM) | MBC [9]: 32 µg/mL (≈ 102 µM) | IC50 at 48 h [2]: 41.6 µM | IC50 at 48 h [3]: 53.5 µM
